Results: patent US20130252930A1 (BIOMARIN PHARMACEUTICAL INC., priority 2010, published 2013)

biological target: T1, CYP17 (human testicular microsome) (Homo sapiens, UniProt P05093); assay: CYP17 enzymatic assay (% inhibition at 1 nM) (Biological Example 12); type: biochemical; conditions: compound at 1 nM, read-out: Biological Example No. 12: CYP17 enzymatic assay % inhibition at 1 nM
T1 construct: using microsomal fraction from human testis (Celsis Cat #S00110) as the enzyme source; tissue Celsis S00110; host or cells: human testis microsomal fraction
T1 sequence (P05093 1-508): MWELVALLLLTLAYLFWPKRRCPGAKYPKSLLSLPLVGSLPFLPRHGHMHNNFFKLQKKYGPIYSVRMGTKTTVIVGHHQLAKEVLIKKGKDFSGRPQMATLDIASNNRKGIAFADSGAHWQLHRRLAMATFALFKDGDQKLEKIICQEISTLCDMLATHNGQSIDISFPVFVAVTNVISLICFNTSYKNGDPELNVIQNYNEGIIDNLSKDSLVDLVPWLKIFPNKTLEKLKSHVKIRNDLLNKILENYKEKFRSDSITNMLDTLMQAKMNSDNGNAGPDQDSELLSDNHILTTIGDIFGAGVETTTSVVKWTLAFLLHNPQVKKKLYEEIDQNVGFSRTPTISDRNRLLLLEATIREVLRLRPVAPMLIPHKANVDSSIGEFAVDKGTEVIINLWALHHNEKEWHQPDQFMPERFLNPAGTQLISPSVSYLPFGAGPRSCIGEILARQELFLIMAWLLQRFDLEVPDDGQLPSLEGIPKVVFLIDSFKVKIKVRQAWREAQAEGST

`C[C@]12CC[C@H]3[C@@H](CC=C4C[C@@H](OC(=O)Nc5cccnc5)CC[C@@]43C)C1=CC=C2c1cccnc1` [Compound 204, (3S,10R,13S)-10,13-dimethyl-17-(pyridin-3-yl)-2,3,4,7,8,9,10,11,12,13-decahydro-1H-cyclopenta[a]phenanthren-3-yl pyridin-3-ylcarbamate] and `Cc1ccncc1C(=O)O[C@H]1CC[C@@]2(C)C(=CC[C@H]3C4=CC=C(c5cccnc5)[C@@]4(C)CC[C@@H]32)C1` [Compound 205, (3S,10R,13S)-10,13-dimethyl-17-(pyridin-3-yl)-2,3,4,7,8,9,10,11,12,13-decahydro-1H-cyclopenta[a]phenanthren-3-yl 4-methylnicotinate] fall in the same range of inhibition at 0.001 µM: 10 to 50% for the first, 10 to 50% for the second.

First: CC(CO)(CO)C(=O)O[C@H]1CC[C@@]2(C)C(=CC[C@H]3C4=CC=C(c5cccnc5)[C@@]4(C)CC[C@@H]32)C1 [Compound 206, (3S,10R,13S)-10,13-dimethyl-17-(pyridin-3-yl)-2,3,4,7,8,9,10,11,12,13-decahydro-1H-cyclopenta[a]phenanthren-3-yl 3-hydroxy-2-(hydroxymethyl)-2-methylpropanoate]
Second: CN1CCC(C(=O)O[C@H]2CC[C@@]3(C)C(=CC[C@H]4C5=CC=C(c6cccnc6)[C@@]5(C)CC[C@@H]43)C2)CC1 [Compound 207, (3S,10R,13S)-10,13-dimethyl-17-(pyridin-3-yl)-2,3,4,7,8,9,10,11,12,13-decahydro-1H-cyclopenta[a]phenanthren-3-yl 1-methylpiperidine-4-carboxylate]
The inhibition at 0.001 µM of the first is lower: < 10% for the first, 10 to 50% for the second.

same assay, conditions: compound at 1 nM, read-out: CYP17 enzymatic assay % inhibition at 1 nM (Biological Example No. 12)

First: CNC1C[C@H]2[C@@H]3CC=C(n4ccnc4)[C@@]3(C)CC[C@@H]2[C@@]2(C)CCC3CC312 (mixture of isomers) [Compound 248, (3aR,5aS)-6-(1H-imidazol-1-yl)-N,3a,5a-trimethyl-1,1a,2,3,3a,3b,4,5,5a,8,8a,8b,9,10-tetradecahydrocyclopenta[a]cyclopropa[2,3]cyclopenta[1,2-f]naphthalen-10-amine]
Second: CNC1CC[C@@]2(C)C(CC[C@@H]3[C@@H]2CC[C@]2(C)C(c4cccnc4)=CC[C@@H]32)C1 (stereo partly drawn) [Compound 211, (10S,13S)-N,10,13-trimethyl-17-(pyridin-3-yl)-2,3,4,5,6,7,8,9,10,11,12,13,14,15-tetradecahydro-1H-cyclopenta[a]phenanthren-3-amine]
The inhibition at 0.001 µM of the first is lower: < 10% for the first, 10 to 50% for the second.

`CC(C)C(=O)O[C@H]1CC[C@@]2(C)C(=CCC3C4=CC=C(c5cccnc5)[C@@]4(C)CCC32)C1` (stereo partly drawn) [Compound 191, (3S,10R,13S)-10,13-dimethyl-17-(pyridin-3-yl)-2,3,4,7,8,9,10,11,12,13-decahydro-1H-cyclopenta[a]phenanthren-3-yl isobutyrate] and `CC(C)(C)C(=O)O[C@H]1CC[C@@]2(C)C(=CCC3C4=CC=C(c5cccnc5)[C@@]4(C)CCC32)C1` (stereo partly drawn) [Compound 192, (3S,10R,13S)-10,13-dimethyl-17-(pyridin-3-yl)-2,3,4,7,8,9,10,11,12,13-decahydro-1H-cyclopenta[a]phenanthren-3-yl pivalate] fall in the same range of inhibition at 0.001 µM: 10 to 50% for the first, 10 to 50% for the second.

First: Cc1ccccc1C(=O)O[C@H]1CC[C@@]2(C)C(=CCC3C4=CC=C(c5cccnc5)[C@@]4(C)CCC32)C1 (stereo partly drawn) [Compound 195, (3S,10R,13S)-10,13-dimethyl-17-(pyridin-3-yl)-2,3,4,7,8,9,10,11,12,13-decahydro-1H-cyclopenta[a]phenanthren-3-yl 2-methylbenzoate]
Second: CC(C)(C)c1ccccc1C(=O)O[C@H]1CC[C@@]2(C)C(=CC[C@H]3C4=CC=C(c5cccnc5)[C@@]4(C)CC[C@@H]32)C1 [Compound 201, (3S,10R,13S)-10,13-dimethyl-17-(pyridin-3-yl)-2,3,4,7,8,9,10,11,12,13-decahydro-1H-cyclopenta[a]phenanthren-3-yl 2-(tert-butyl)benzoate]
The inhibition at 0.001 µM of the first is higher: 10 to 50% for the first, < 10% for the second.

First: CCNC(=O)O[C@H]1CC[C@@]2(C)C(=CC[C@H]3C4=CC=C(c5cccnc5)[C@@]4(C)CC[C@@H]32)C1 [Compound 202, (3S,10R,13S)-10,13-dimethyl-17-(pyridin-3-yl)-2,3,4,7,8,9,10,11,12,13-decahydro-1H-cyclopenta[a]phenanthren-3-yl ethylcarbamate]
Second: CC(C)(C)NC(=O)O[C@H]1CC[C@@]2(C)C(=CC[C@H]3C4=CC=C(c5cccnc5)[C@@]4(C)CC[C@@H]32)C1 [Compound 203, (3S,10R,13S)-10,13-dimethyl-17-(pyridin-3-yl)-2,3,4,7,8,9,10,11,12,13-decahydro-1H-cyclopenta[a]phenanthren-3-yl tert-butylcarbamate]
The inhibition at 0.001 µM of the first is lower: < 10% for the first, 10 to 50% for the second.

`CNC1CC[C@@]2(C)C(CCC3C2CC[C@]2(C)C(c4cncc(C)c4)=CCC32)C1` (stereo partly drawn) [Compound 210, (10S,13S)-N,10,13-trimethyl-17-(5-methylpyridin-3-yl)-2,3,4,5,6,7,8,9,10,11,12,13,14,15-tetradecahydro-1H-cyclopenta[a]phenanthren-3-amine] and `CC(=O)N(C)C1CC[C@@]2(C)C(CCC3C2CC[C@]2(C)C(c4cncc(C)c4)=CCC32)C1` (stereo partly drawn) [Compound 212, N-((10S,13S)-10,13-dimethyl-17-(5-methylpyridin-3-yl)-2,3,4,5,6,7,8,9,10,11,12,13,14,15-tetradecahydro-1H-cyclopenta[a]phenanthren-3-yl)-N-methylacetamide] fall in the same range of inhibition at 0.001 µM: 10 to 50% for the first, 10 to 50% for the second.

`CC(=O)N(C)C1CC[C@@]2(C)C(CCC3C2CC[C@]2(C)C(c4cccnc4)=CCC32)C1` (stereo partly drawn) [Compound 213, N-((10S,13S)-10,13-dimethyl-17-(pyridin-3-yl)-2,3,4,5,6,7,8,9,10,11,12,13,14,15-tetradecahydro-1H-cyclopenta[a]phenanthren-3-yl)-N-methylacetamide] and `C[C@]12CC[C@@H](N)CC1CC[C@@H]1[C@@H]2CC[C@]2(C)C(c3cccnc3)=CC[C@@H]12` (stereo partly drawn) [Compound 214, (3R,10S,13S)-10,13-dimethyl-17-(pyridin-3-yl)-2,3,4,5,6,7,8,9,10,11,12,13,14,15-tetradecahydro-1H-cyclopenta[a]phenanthren-3-amine] fall in the same range of inhibition at 0.001 µM: 10 to 50% for the first, 10 to 50% for the second.

`C[C@]12CC[C@@H](N=[N+]=[N-])CC1CC[C@@H]1[C@@H]2CC[C@]2(C)C(c3cccnc3)=CC[C@@H]12` (stereo partly drawn) [Compound 214b, 3-((3R,10S,13S)-3-azido-10,13-dimethyl-2,3,4,5,6,7,8,9,10,11,12,13,14,15-tetradecahydro-1H-cyclopenta[a]phenanthren-17-yl)pyridine] and `C[C@]12CC[C@@H](NC(=O)C(F)(F)F)CC1CCC1C2CC[C@]2(C)C(c3cccnc3)=CCC12` (stereo partly drawn) [Compound 217, N-((3R,10S,13S)-10,13-dimethyl-17-(pyridin-3-yl)-2,3,4,5,6,7,8,9,10,11,12,13,14,15-tetradecahydro-1H-cyclopenta[a]phenanthren-3-yl)-2,2,2-trifluoroacetamide] fall in the same range of inhibition at 0.001 µM: 10 to 50% for the first, 10 to 50% for the second.

`C[C@]12CC[C@@H](NS(C)(=O)=O)CC1=CCC1C2CC[C@]2(C)C(c3cccnc3)=CCC12` (stereo partly drawn) [Compound 225, N-((3R,10R,13S)-10,13-dimethyl-17-(pyridin-3-yl)-2,3,4,7,8,9,10,11,12,13,14,15-dodecahydro-1H-cyclopenta[a]phenanthren-3-yl)methanesulfonamide] and `CCNC(=S)N[C@@H]1CC[C@@]2(C)C(=CC[C@@H]3[C@@H]2CC[C@]2(C)C(c4cccnc4)=CC[C@@H]32)C1` [Compound 233, 1-((3R,10R,13S)-10,13-dimethyl-17-(pyridin-3-yl)-2,3,4,7,8,9,10,11,12,13,14,15-dodecahydro-1H-cyclopenta[a]phenanthren-3-yl)-3-ethylthiourea] fall in the same range of inhibition at 0.001 µM: 10 to 50% for the first, 10 to 50% for the second.

`C[C@]12CC[C@@H](NC(=O)c3nccs3)CC1=CC[C@@H]1[C@@H]2CC[C@]2(C)C(c3cccnc3)=CC[C@@H]12` [Compound 229, N-((3R,10R,13S)-10,13-dimethyl-17-(pyridin-3-yl)-2,3,4,7,8,9,10,11,12,13,14,15-dodecahydro-1H-cyclopenta[a]phenanthren-3-yl)thiazole-2-carboxamide] gave an inhibition at 0.001 µM of 10 to 50%.

same assay, conditions: test compound at 1 nM, read-out: CYP17 enzymatic assay percent inhibition at 1 nM (Biological Example No. 12)

`CCC(=O)O[C@H]1CC[C@@]2(C)C(=CCC3C4=CC=C(c5cccnc5)[C@@]4(C)CCC32)C1` (stereo partly drawn) [Compound 193, (3S,10R,13S)-10,13-dimethyl-17-(pyridin-3-yl)-2,3,4,7,8,9,10,11,12,13-decahydro-1H-cyclopenta[a]phenanthren-3-yl propionate] and `C[C@]12CCC3C(CC=C4C[C@@H](OC(=O)c5ccccc5)CC[C@@]43C)C1=CC=C2c1cccnc1` (stereo partly drawn) [Compound 194, (3S,10R,13S)-10,13-dimethyl-17-(pyridin-3-yl)-2,3,4,7,8,9,10,11,12,13-decahydro-1H-cyclopenta[a]phenanthren-3-yl benzoate] fall in the same range of inhibition at 0.001 µM: 10 to 50% for the first, 10 to 50% for the second.

`CC(C)(C)C(=O)N[C@@H]1CC[C@@]2(C)C(CCC3C2CC[C@]2(C)C(c4cccnc4)=CCC32)C1` (stereo partly drawn) [Compound 218, N-((3R,10S,13S)-10,13-dimethyl-17-(pyridin-3-yl)-2,3,4,5,6,7,8,9,10,11,12,13,14,15-tetradecahydro-1H-cyclopenta[a]phenanthren-3-yl)pivalamide] gave an inhibition at 0.001 µM of 10 to 50%.
